Assay results published in patent US20230201301A1 (priority 2020, published 2023).

Test system: inflammatory cell-types in the lungs
Set-up: species or system transgenic mice B6.Cg-Tg(K18-ACE2)2Prlmn/J
Conditions: mouse, in vivo, ip

LQEEDTGEYGCV (TLT-1 peptide) [LR12]
CD4+ T cells in lungs vs vehicle: no effect | CD8+ T cells in lungs vs vehicle: no effect | CD45+ cells in lungs vs vehicle: decrease | NK cells in lungs vs vehicle: no effect | NKT cells in lungs vs vehicle: lower number | number of monocytes-derived macrophages in lungs vs vehicle: lower | number of neutrophils in lungs vs vehicle: lower | total number of cells in lungs vs vehicle: did not differ
